Reference: ChEMBL document CHEMBL1148691, “Inhibitors of hepatitis C virus NS3.4A protease. Effect of P4 capping groups on inhibitory potency and pharmacokinetics” (Bioorg Med Chem Lett, 2007)

Assays:
Hepatitis C virus = experiment: Inhibition of HCV replicon RNA production in HUh7 cells; assay type: functional, organism-based, Hepacivirus hominis; conditions: Huh-7
[1] = Ratio of drug level in CD1 mouse liver to IC50 for HCV; assay type: functional, tissue-based
Liver = experiment: Drug level in CD1 mouse liver at 50 mg/kg, po; assay type: ADME, organism-based; parameters: dose 50 mg/kg, route oral; conditions: in vivo, read-out: Activity
Plasma = experiment: Drug level in CD1 mouse plasma at 50 mg/kg, po; assay type: ADME, organism-based; parameters: dose 50 mg/kg, route oral; conditions: in vivo
[2] = Inhibition of HCV NS3 4A protease; parameters: species or system Hepacivirus hominis
Mus musculus [3] = experiment: AUC(0 to 8 hrs) in CD1 mouse liver at 50 mg/kg, po; assay type: ADME, organism-based; parameters: dose 50 mg/kg, route oral; conditions: in vivo, 6 h
Mus musculus [4] = experiment: AUC(0 to 8 hrs) in CD1 mouse plasma at 50 mg/kg, po; assay type: ADME, organism-based; parameters: dose 50 mg/kg, route oral; conditions: in vivo, 6 h
[5] = Cytotoxicity against Huh7 cells by MTS assay; assay type: cell-based, Huh-7; conditions: human
[6] = Selectivity index, ratio of CC50 for Huh7cells to IC50 for HCV; assay type: functional

IC50 (Hepatitis C virus) [nM]	concentration (Liver) [nM]	concentration (Plasma) [nM]	Ki [2] [nM]	AUC (Mus musculus [3]) [µM·h]	AUC (Mus musculus [4]) [µM·h]	SMILES	Ratio [1]	CC50 [5] [nM]	Selectivity index [6]
200	1300	40	30	10.5	0.36	CCC[C@H](NC(=O)[C@@H]1[C@H]2CCC[C@H]2CN1C(=O)[C@@H](NC(=O)[C@@H](NC(=O)c1ncc[nH]1)C1CCCCC1)C(C)(C)C)C(=O)C(=O)NC1CC1	52	–	–
1100	360	180	150	2.9	1.5	CCC[C@H](NC(=O)[C@@H]1C[C@@H]2CCCC[C@@H]2N1C(=O)[C@@H](NC(=O)[C@@H](NC(=O)c1cnccn1)C1CCCCC1)C(C)(C)C)C(=O)C(=O)NC1CC1	0.33	47000	43
1900	–	–	520	–	–	CCC[C@H](NC(=O)[C@@H]1C[C@@H]2CCCC[C@@H]2N1C(=O)[C@@H](NC(=O)[C@@H](NC(=O)c1ccccn1)C1CCCCC1)C(C)(C)C)C(=O)C(=O)NC1CC1	–	> 100000	> 52
260	–	–	140	–	–	CCC[C@H](NC(=O)[C@@H]1C[C@@H]2CCCC[C@@H]2N1C(=O)[C@@H](NC(=O)[C@@H](NC(=O)C(=O)NCc1ccccc1)C1CCCCC1)C(C)(C)C)C(=O)C(=O)NC1CC1	–	> 100000	> 380
270	–	–	110	–	–	CCC[C@H](NC(=O)[C@@H]1C[C@@H]2CCCC[C@@H]2N1C(=O)[C@@H](NC(=O)[C@@H](NC(=O)C(=O)NC1CC1)C1CCCCC1)C(C)(C)C)C(=O)C(=O)NC1CC1	–	> 100000	> 375
> 3000	260	170	1200	2.1	1.3	CCC[C@H](NC(=O)[C@@H]1C[C@@H]2CCCC[C@@H]2N1C(=O)[C@@H](NC(=O)[C@@H](NC(=O)c1nccn1C)C1CCCCC1)C(C)(C)C)C(=O)C(=O)NC1CC1	–	> 100000	–
500	170	40	90	1.3	0.36	CCC[C@H](NC(=O)[C@@H]1C[C@@H]2CCCC[C@@H]2N1C(=O)[C@@H](NC(=O)[C@@H](NC(=O)c1ccc[nH]1)C1CCCCC1)C(C)(C)C)C(=O)C(=O)NC1CC1	0.34	> 100000	> 201
1600	–	–	640	–	–	CCC[C@H](NC(=O)[C@@H]1C[C@@H]2CCCC[C@@H]2N1C(=O)[C@@H](NC(=O)[C@@H](NC(=O)C1(O)CCCC1)C1CCCCC1)C(C)(C)C)C(=O)C(=O)NC1CC1	–	> 100000	> 64
1200	–	–	440	–	–	CCC[C@H](NC(=O)[C@@H]1C[C@@H]2CCCC[C@@H]2N1C(=O)[C@@H](NC(=O)[C@@H](NC(=O)c1cnc2ccccc2n1)C1CCCCC1)C(C)(C)C)C(=O)C(=O)NC1CC1	–	> 100000	> 81
370	10	–	50	0.06	–	CCC[C@H](NC(=O)[C@@H]1C[C@@H]2CCCC[C@@H]2N1C(=O)[C@@H](NC(=O)[C@@H](NC(=O)c1cc([N+](=O)[O-])c[nH]1)C1CCCCC1)C(C)(C)C)C(=O)C(=O)NC1CC1	0.03	> 100000	> 270
400	–	–	160	–	–	CCC[C@H](NC(=O)[C@@H]1C[C@@H]2CCCC[C@@H]2N1C(=O)[C@@H](NC(=O)[C@@H](NC(=O)C(=O)NC(C)C)C1CCCCC1)C(C)(C)C)C(=O)C(=O)NC1CC1	–	> 100000	> 249
> 3000	–	–	370	–	–	CCC[C@H](NC(=O)[C@@H]1C[C@@H]2CCCC[C@@H]2N1C(=O)[C@@H](NC(=O)[C@H](C1CCCCC1)N1C(=O)c2ccccc2C1=O)C(C)(C)C)C(=O)C(=O)NC1CC1	–	> 100000	–
350	2400	370	40	19	3	CCC[C@H](NC(=O)[C@@H]1[C@H]2CCC[C@H]2CN1C(=O)[C@@H](NC(=O)[C@@H](NC(=O)c1cnccn1)C1CCCCC1)C(C)(C)C)C(=O)C(=O)NC1CC1	54	82000	230
490	–	–	120	–	–	CCC[C@H](NC(=O)[C@@H]1C[C@@H]2CCCC[C@@H]2N1C(=O)[C@@H](NC(=O)[C@@H](NC(=O)c1cc2cc(F)ccc2[nH]1)C1CCCCC1)C(C)(C)C)C(=O)C(=O)NC1CC1	–	> 100000	> 203
1700	–	–	240	–	–	CCC[C@H](NC(=O)[C@@H]1C[C@@H]2CCCC[C@@H]2N1C(=O)[C@@H](NC(=O)[C@@H](NC(=O)c1cccnc1)C1CCCCC1)C(C)(C)C)C(=O)C(=O)NC1CC1	–	> 100000	> 58
1400	–	–	240	–	–	CCC[C@H](NC(=O)[C@@H]1C[C@@H]2CCCC[C@@H]2N1C(=O)[C@@H](NC(=O)[C@@H](NC(=O)c1ccoc1)C1CCCCC1)C(C)(C)C)C(=O)C(=O)NC1CC1	–	> 100000	> 71
230	60	10	120	0.47	0.05	CCC[C@H](NC(=O)[C@@H]1C[C@@H]2CCCC[C@@H]2N1C(=O)[C@@H](NC(=O)[C@@H](NC(=O)c1ncc[nH]1)C1CCCCC1)C(C)(C)C)C(=O)C(=O)NC1CC1	0.26	> 100000	> 442
1100	–	–	320	–	–	CCC[C@H](NC(=O)[C@@H]1C[C@@H]2CCCC[C@@H]2N1C(=O)[C@@H](NC(=O)[C@@H](NC(=O)[C@@H]1Cc2ccccc2N1)C1CCCCC1)C(C)(C)C)C(=O)C(=O)NC1CC1	–	> 100000	> 90
